Measured values: patent US12503485B2, “Human aminosterol ENT-03 compounds, related compositions comprising the same, and methods of using the same” (Enterin, Inc., priority 2019, dated 2025)

Columns and labels:
hAPP-J20 mice = test: Morris water maze, hAPP-J20 Alzheimer's mouse model; type: in vivo
[1] = molecular target: T1, PP2A Alpha/PP2R1A Complex (Homo sapiens, UniProt P67775); test: Phosphatase assay PP2A Alpha/PP2R1A Complex; type: biochemical
T1 construct: purchased Recation Biology Inc

[2] = system: transcriptomes of the stomach, jejunum and ileum; type: in vivo; details: aged mice (78 weeks)
PTPN11/SHP2-FL = molecular target: T2, PTPN11/SHP2-FL (Homo sapiens, UniProt Q06124); test: Phosphatase assay PTPN11/SHP2-FL with activating peptide; type: biochemical
T2 construct: aa 2-597, isoform 1 (canonical)); StrepII-TEV (N); His-tag (C); purchased Recation Biology Inc; host or cells: E. coli

PTPN12/PTP-PEST = molecular target: T3, PTPN12/PTP-PEST (Homo sapiens, UniProt Q05209); test: Phosphatase assay PTPN12/PTP-PEST; type: biochemical
T3 construct: purchased Recation Biology Inc

[3] = 2.5 mg/kg i.p. once per week for 6 weeks, vs vehicle

T1 sequence (P67775 whole entry): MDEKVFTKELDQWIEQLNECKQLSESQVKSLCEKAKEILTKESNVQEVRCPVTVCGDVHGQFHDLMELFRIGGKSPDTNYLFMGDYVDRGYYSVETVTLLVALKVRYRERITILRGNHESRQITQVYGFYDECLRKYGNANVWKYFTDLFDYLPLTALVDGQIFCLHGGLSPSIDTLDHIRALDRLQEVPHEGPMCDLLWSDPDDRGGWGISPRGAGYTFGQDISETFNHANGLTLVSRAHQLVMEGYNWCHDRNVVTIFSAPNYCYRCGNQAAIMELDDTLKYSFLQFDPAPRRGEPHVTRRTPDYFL
T1 sequence (P30153 whole entry partner): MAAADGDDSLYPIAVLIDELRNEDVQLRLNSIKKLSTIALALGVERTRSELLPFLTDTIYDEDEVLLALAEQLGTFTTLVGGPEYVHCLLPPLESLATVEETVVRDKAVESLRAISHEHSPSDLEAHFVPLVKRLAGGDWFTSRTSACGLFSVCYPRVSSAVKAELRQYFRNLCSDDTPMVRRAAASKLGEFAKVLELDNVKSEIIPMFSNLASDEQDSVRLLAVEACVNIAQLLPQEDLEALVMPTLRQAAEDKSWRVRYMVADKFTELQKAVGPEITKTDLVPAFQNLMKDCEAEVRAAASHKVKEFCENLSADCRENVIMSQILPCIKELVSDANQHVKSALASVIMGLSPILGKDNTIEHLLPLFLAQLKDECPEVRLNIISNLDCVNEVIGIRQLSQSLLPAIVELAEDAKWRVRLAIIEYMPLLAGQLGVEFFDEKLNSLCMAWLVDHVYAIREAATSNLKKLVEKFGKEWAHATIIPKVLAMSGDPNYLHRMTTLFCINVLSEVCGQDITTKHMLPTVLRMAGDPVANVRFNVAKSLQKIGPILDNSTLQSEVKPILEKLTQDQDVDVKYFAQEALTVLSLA
T3 sequence (Q05209 whole entry): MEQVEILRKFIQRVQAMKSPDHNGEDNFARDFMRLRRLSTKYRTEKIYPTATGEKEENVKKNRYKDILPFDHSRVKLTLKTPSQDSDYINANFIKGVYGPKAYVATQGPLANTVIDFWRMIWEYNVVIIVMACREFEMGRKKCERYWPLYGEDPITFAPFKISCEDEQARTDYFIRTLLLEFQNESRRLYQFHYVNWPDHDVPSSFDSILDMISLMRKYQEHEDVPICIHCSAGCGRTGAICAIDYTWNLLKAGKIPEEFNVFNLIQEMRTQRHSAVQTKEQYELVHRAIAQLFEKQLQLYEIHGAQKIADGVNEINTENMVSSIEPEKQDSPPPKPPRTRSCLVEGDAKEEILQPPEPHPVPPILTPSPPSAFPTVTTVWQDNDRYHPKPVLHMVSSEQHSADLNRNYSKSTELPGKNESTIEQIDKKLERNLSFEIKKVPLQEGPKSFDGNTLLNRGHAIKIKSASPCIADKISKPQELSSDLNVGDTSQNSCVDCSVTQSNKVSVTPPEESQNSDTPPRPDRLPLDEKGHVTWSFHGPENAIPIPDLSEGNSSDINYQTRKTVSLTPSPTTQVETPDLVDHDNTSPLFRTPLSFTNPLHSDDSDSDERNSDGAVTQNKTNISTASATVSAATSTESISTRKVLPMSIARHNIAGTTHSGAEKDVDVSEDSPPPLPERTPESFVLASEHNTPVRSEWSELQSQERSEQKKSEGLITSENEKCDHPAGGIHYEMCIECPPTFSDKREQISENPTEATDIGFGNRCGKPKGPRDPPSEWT

Row | SMILES | learning during the training phase (hAPP-J20 mice; [3]) | memory on the probe day (hAPP-J20 mice; [3]) | latency to find the hidden platform during the training phase (hAPP-J20 mice; 2.5 mg/kg/wk i.p. over 6 weeks) | activity at PP2A alpha, in words [1] | IC50 ([1]; Table 2B, read-out: Compound IC50 (M) PP2A Alpha/PP2R1A Complex) [M] | genes increased upon treatment that decreased in expression with ageing [2] [genes] | activity against full length PTPN11/SHP2, in words (PTPN11/SHP2-FL) | activity on PTPN12/PTP-PEST, in words (PTPN12/PTP-PEST)
1 | CC(CCCC(C)C1CCC2C3C(O)CC4CC(NCCCNCCCCNCCCN)CCC4(C)C3CCC12C)C(=O)O (single isomer, unassigned; ent-03) [ENT-03, 3-β-Spermino-7α-hydroxy-5α-cholestanoic acid] | improved | improved | decreased | inactive | > 0.0001 | 36 |  | 
2 | CC(C)[C@@H](CC[C@@H](C)[C@H]1CC[C@H]2[C@@H]3[C@H](O)C[C@H]4C[C@@H](NCCCNCCCCNCCCN)CC[C@]4(C)[C@H]3CC[C@]12C)OS(=O)(=O)O (single isomer, unassigned) [ENT-02, trodusquemine] |  |  |  |  |  |  | active | target
